Test [1] relates to Colo205 cells. The experiment in a line: Analysis of Cell Proliferation and Viability. The format is cell-based. The conditions noted are these: Homo sapiens, COLO 205, 72 hours, lower bound 100 nM, upper bound 1 uM nM [sic], read-out: IC50 values after 72 hours. How it is done: Compounds were screened for their ability to inhibit cell proliferation and their effects on cell viability using Colo205 cells obtained from ECACC and using the assay shown below.
Colo205 cells were seeded in 96 well plates and serially diluted compound was added to the wells in duplicate. Control groups included untreated cells, the compound diluent (0.1% DMSO alone) and culture medium without cells. The cells were then incubated for 72 or 96 hrs at 37 C in an atmosphere of 5% CO2/95% humidity.
To measure proliferation, 3 h prior to the end of the experiment 0.5 μCi of 3H thymidine was added to each well. Cells were then harvested and the incorporated radioactivity counted on a Wallac microplate beta-counter. Cell viability was assessed using Promega CellTiter 96AQ to measure MTS conversion. Dose response curves were calculated using either Prism 3.0 (GraphPad) or SoftMax Pro 4.3.1 LS (Molecular Devices) software.

In test [2] the target is T1, Aurora-2 (Aurora A) (Homo sapiens, UniProt O14965).
T1 sequence (O14965 1-403): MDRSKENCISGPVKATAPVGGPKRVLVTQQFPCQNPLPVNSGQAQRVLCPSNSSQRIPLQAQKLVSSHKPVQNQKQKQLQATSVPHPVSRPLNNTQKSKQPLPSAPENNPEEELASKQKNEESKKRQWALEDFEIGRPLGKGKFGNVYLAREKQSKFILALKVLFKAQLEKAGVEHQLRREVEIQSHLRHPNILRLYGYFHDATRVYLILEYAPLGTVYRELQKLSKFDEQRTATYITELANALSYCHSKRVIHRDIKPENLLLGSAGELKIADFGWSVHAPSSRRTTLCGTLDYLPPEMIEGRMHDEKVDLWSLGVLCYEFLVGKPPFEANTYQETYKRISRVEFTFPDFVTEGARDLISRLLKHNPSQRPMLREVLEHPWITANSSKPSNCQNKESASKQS
In words: Aurora-2 (Aurora A) Inhibition Assay (coupled enzyme assay). The format is biochemical. The conditions noted are these: 400 μM ATP, 40 nM Aurora-2, 30° C.; read-out: inhibit Aurora A, Ki. How it is done: Compounds were screened for their ability to inhibit Aurora-2 using a standard coupled enzyme assay (Fox et al., Protein Sci., (1998) 7, 2249). Assays were carried out in a mixture of 100 mM Hepes (pH7.5), 10 mM MgCl2, 1 mM DTT, 25 mM NaCl, 2.5 mM phosphoenolpyruvate, 300 μM NADH, 30 μg/ml pyruvate kinase and 10 μg/ml lactate dehydrogenase. Final substrate concentrations in the assay were 400 μM ATP (Sigma Chemicals) and 570 μM peptide (Kemptide, American Peptide, Sunnyvale, Calif.). Assays were carried out at 30° C. and in the presence of 40 nM Aurora-2.
An assay stock buffer solution was prepared containing all of the reagents listed above, with the exception of Aurora-2 and the test compound of interest. 55 μl of the stock solution was placed in a 96 well plate followed by addition of 2 μl of DMSO stock containing serial dilutions of the test compound (typically starting from a final concentration of 7.5 μM). The plate was preincubated for 10 minutes at 30° C. and the reaction initiated by addition of 10 μl of Aurora-2. Initial reaction rates were determined with a Molecular Devices SpectraMax Plus plate reader over a 10 minute time course. IC50 and Ki data were calculated from non-linear regression analysis using the Prism software package (GraphPad Prism version 3.0cx for Macintosh, GraphPad Software, San Diego Calif., USA).

Test [3] has as its target Aurora-1 (Aurora B) (Homo sapiens, UniProt Q96GD4). In words: Aurora-1 (Aurora B) Inhibition Assay (Radiometric). The class given is biochemical. The conditions noted are these: 800 μM ATP, 25° C., read-out: inhibit Aurora A, Ki (printed under the Aurora-1 (Aurora B) assay). How it is done: An assay buffer solution was prepared which consisted of 25 mM HEPES (pH 7.5), 10 mM MgCl2, 0.1% BSA and 10% glycerol. A 22 nM Aurora-B solution, also containing 1.7 mM DTT and 1.5 mM Kemptide (LRRASLG), was prepared in assay buffer. To 22 μL of the Aurora-B solution, in a 96-well plate, was added 2 μl of a compound stock solution in DMSO and the mixture allowed to equilibrate for 10 minutes at 25° C. The enzyme reaction was initiated by the addition of 16 μl stock [γ-^33P]-ATP solution (˜20 nCi/μL) prepared in assay buffer, to a final assay concentration of 800 μM. The reaction was stopped after 3 hours by the addition of 16 μL 500 mM phosphoric acid and the levels of ^33P incorporation into the peptide substrate were determined by the following method.
A phosphocellulose 96-well plate (Millipore, Cat no. MAPHNOB50) was pre-treated with 100 μL of a 100 mM phosphoric acid prior to the addition of the enzyme reaction mixture (40 μL). […] Levels of non-enzyme catalyzed background radioactivity were determined by adding 16 μL of the 500 mM phosphoric acid to control wells, containing all assay components (which acts to denature the enzyme), prior to the addition of the [γ-^33P]-ATP solution. Levels of enzyme catalyzed ^33P incorporation were calculated by subtracting mean background counts from those measured at each inhibitor concentration. […]

The target of test [4] is N-terminally truncated (Δ27) Abl kinase (Homo sapiens, UniProt P00519). In words: Abl Kinase Activity Inhibition Assay (coupled enzyme system). The class given is biochemical. The settings on record: 110 μM ATP, 21 nM Abl kinase, 30° C.; read-out: inhibit Abl kinase, Ki value. As for the experimental part:
Compounds were screened for their ability to inhibit N-terminally truncated (Δ27) Abl kinase activity using a standard coupled enzyme system (Fox et al., Protein Sci., 7, pp. 2249 (1998)). Reactions were carried out in a solution containing 100 mM HEPES (pH 7.5), 10 mM MgCl2, 25 mM NaCl, 300 μM NADH, 1 mM DTT and 3% DMSO. Final substrate concentrations in the assay were 110 μM ATP (Sigma Chemicals, St Louis, Mo.) and 70 μM peptide (EAIYAAPFAKKK, American Peptide, Sunnyvale, Calif.). Reactions were carried out at 30° C. and 21 nM Abl kinase. Final concentrations of the components of the coupled enzyme system were 2.5 mM phosphoenolpyruvate, 200 μM NADH, 60 μg/ml pyruvate kinase and 20 μg/ml lactate dehydrogenase.
An assay stock buffer solution was prepared containing all of the reagents listed above with the exception of ATP and the test compound of interest. The assay stock buffer solution (60 μl) was incubated in a 96 well plate with 2 μl of the test compound of interest at final concentrations typically spanning 0.002 μM to 30 μM at 30° C. for 10 min. […] Rates of reaction were obtained using a Molecular Devices Spectramax plate reader (Sunnyvale, Calif.) over 10 min at 30° C. The Ki values were determined from the residual rate data as a function of inhibitor concentration using nonlinear regression (Prism 3.0, Graphpad Software, San Diego, Calif.).

A word on the IC50: it is the concentration that gives 50% inhibition. What is called Ki is a dissociation constant, usually derived from enzyme kinetics or from competition with a known ligand.

N-terminally truncated (Δ27) Abl kinase, sequence (P00519 whole entry, stated change not applied, the tested form may be a part): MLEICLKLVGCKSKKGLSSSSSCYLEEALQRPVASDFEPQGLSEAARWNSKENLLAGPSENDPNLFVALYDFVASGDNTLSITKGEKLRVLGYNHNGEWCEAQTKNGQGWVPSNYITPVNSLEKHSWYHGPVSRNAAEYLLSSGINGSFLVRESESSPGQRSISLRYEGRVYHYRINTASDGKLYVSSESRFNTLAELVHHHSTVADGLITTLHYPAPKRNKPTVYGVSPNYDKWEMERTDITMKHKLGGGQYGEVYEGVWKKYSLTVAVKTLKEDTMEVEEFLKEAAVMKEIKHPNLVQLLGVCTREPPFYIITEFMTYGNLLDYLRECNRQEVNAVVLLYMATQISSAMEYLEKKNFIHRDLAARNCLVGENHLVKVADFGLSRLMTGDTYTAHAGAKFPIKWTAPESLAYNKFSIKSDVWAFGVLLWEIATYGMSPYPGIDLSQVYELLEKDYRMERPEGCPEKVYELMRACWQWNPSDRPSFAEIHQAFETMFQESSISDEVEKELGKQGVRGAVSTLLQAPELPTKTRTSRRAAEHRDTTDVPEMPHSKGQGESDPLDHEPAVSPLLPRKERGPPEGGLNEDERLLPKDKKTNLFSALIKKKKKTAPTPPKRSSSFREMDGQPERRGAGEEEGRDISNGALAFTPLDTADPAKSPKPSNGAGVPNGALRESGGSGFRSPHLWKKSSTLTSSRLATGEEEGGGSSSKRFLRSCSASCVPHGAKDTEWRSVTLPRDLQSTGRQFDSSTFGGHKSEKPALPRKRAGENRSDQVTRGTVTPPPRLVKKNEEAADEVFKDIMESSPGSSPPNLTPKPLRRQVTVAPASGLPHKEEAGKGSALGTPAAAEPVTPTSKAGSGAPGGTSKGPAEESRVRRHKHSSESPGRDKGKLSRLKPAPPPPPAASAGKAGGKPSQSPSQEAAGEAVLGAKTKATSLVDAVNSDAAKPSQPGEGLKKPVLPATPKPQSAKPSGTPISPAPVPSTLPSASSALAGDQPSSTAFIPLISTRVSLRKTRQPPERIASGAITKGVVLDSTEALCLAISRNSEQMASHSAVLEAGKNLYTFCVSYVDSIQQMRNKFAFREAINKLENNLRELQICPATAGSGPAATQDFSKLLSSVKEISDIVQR
Aurora-1 (Aurora B), sequence (Q96GD4 whole entry): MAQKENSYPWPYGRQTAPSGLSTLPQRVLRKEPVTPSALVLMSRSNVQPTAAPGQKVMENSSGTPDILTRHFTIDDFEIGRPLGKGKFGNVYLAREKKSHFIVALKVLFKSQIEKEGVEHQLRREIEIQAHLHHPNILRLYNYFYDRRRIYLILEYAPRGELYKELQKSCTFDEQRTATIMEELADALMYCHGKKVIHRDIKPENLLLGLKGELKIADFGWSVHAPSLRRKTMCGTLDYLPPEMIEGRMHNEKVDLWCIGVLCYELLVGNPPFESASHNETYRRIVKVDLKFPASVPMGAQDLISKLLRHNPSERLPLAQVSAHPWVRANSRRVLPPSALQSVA

Turning to `Cc1cc(Nc2cc(N3CCN(C(C)(C)CF)CC3)nc(Sc3cc(F)c4nc(C)ccc4c3)n2)[nH]n1` [Compound I-6], in test [1], the IC50 was in the range of 100 to 1000 nM. The same measure, in the same setting: in the case of `Cc1cc(Nc2cc(N3CCN(C(C)(C)CF)CC3)nc(Sc3ccc4nc(C(F)(F)F)cn4c3)n2)[nH]n1` [Compound I-11] it was 100 to 1000 nM. For the compound `Cc1cc(Nc2cc(N3CCN(C4CCN(C)CC4)CC3)nc(Sc3cc(F)c4nc(C)ccc4c3)n2)[nH]n1` [Compound I-13, 2-(8-fluoro-2-methylquinolin-6-ylthio)-N-(3-methyl-1H-pyrazol-5-yl)-6-(4-(1-methylpiperidin-4-yl)piperazin-1-yl)pyrimidin-4-amine], the Ki in test [2] is 1 to 2 nM; in test [3], 10 to 20 nM; in test [4] it was less than 25 nM. As to `Cc1cc(Nc2cc(N3CCN(C4CC4)CC3)nc(Sc3ccc4nc(C(F)(F)F)cn4c3)n2)[nH]n1` [Compound I-14], the IC50 in test [1] lay in the range of 100 to 1000 nM.

Consider `Cc1cc(Nc2cc(N3CCN(C4CC4)CC3)nc(Sc3cc(F)c4nc(C)ccc4c3)n2)[nH]n1` [Compound I-15], for which, in test [1], the IC50 lay in the range of 100 to 1000 nM.

Take `Cc1cc(Nc2cc(N3CCN(C(C)(C)CF)CC3)nc(Sc3ccc4nc(C(F)(F)F)n(C)c4c3)n2)[nH]n1` [Compound I-21]: the IC50 in test [1] was in the range of 100 to 1000 nM. Consider `Cc1cc(Nc2cc(N3CCN(CC(F)(F)F)CC3)nc(Sc3ccc4nc(C(F)(F)F)cn4c3)n2)[nH]n1` [Compound I-22], for which, in test [1], the IC50 was in the range of 100 to 1000 nM.

As to `Cc1cc(Nc2cc(N3CCN(CC(F)(F)F)CC3)nc(Sc3cc(F)c4nc(C)ccc4c3)n2)[nH]n1` [Compound I-23], the IC50 in test [1] lay in the range of 100 to 1000 nM.

(Values after patent US8455507B2, “Aminopyrimidines useful as kinase inhibitors” (Vertex Pharmaceuticals Incorporated, priority 2007, dated 2013).)
